{"source": "patent US20250109120A1", "about": "“INDOLINE DERIVATIVES FOR TREATMENT AND/OR PREVENTION OF TUMOR OR CELL PROLIFERATIVE AND FIBROSIS DISEASES” (NATIONAL TAIWAN UNIVERSITY, priority 2023, published 2025)", "key": {"CDK19": {"target": "CDK19 (Homo sapiens (Human), UniProt Q9BWU1)", "sequence (Q9BWU1 whole entry)": "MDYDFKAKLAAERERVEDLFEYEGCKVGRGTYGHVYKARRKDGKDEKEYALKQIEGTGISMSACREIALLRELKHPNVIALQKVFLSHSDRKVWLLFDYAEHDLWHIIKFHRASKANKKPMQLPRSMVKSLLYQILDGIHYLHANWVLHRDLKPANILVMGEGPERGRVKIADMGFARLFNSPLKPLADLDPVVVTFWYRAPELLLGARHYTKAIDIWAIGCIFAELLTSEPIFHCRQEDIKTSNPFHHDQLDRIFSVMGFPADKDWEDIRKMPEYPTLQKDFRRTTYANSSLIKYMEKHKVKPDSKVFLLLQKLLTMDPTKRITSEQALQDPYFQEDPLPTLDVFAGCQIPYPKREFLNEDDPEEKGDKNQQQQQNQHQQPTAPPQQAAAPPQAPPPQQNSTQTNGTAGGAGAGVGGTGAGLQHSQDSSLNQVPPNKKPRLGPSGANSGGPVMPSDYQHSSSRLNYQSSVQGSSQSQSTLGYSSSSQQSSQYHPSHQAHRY", "experiment": "Kinase selectivity panel of 54 kinases (SelectScreen)", "format": "biochemical", "details": "150 nM, 54-kinase panel", "protocol": "(§1) Compounds were tested for kinase inhibitory activity using the Thermo Fisher SelectScreen service (www.thermofisher.com/selectscreen). For CDK8, the LanthaScreen Eu Binding Assay was used. Briefly, the assay employed utilizes a fluorescent tracer to a given kinase. This is used to detect the addition of an anti-tag antibody. When the tracer and antibody bind to the targeted kinase, the Forster resonance energy transfer is measured. When a kinase inhibitor is added to the assay, the tracer/kinase binding will be disrupted, producing low FRET detection and indicating kinase inhibitory activity. Evaluation of kinase activity of additional kinase targets utilized the LanthaScreen binding assay or the Z′-Lyte activity assay provided by Thermo Fisher SelectScreen service. The IC50 values were determined using sequential doses, and the inhibition curves were provided by Thermo Fisher Scientific.\n(§2) Compound k was evaluated for kinase selectivity. […] The cytotoxicity of compound k was then assessed in DU145 and PC-3 cells, human prostate cancer cell lines isolated from patients with brain and bone metastasis, respectively. […] To further examine whether compound k still inhibited CDK8/19 inhibition in cells, we assessed whether compound treatment in DU145/PC-3 androgen-independent prostate cancer cells could inhibit STAT1-S727 phosphorylation. […]"}, "other CDKs and kinases": {"tested_on": "other CDKs and kinases", "experiment": "Kinase selectivity panel of 54 kinases (SelectScreen)", "format": "biochemical", "details": "150 nM, 54-kinase panel", "protocol": "as §1, §2"}, "A549 cells": {"tested_on": "A549 cells", "experiment": "Wound-healing migration assay", "format": "cell-based, human", "details": "compounds 2 μM, senexin A 5 μM, pirfenidone 1 mM; TGF-β1 10 ng/mL; 24 or 48 h", "protocol": "A549 cells were incubated in six-well plates until reaching 90% confluency, scratched with a pipette tip, and immediately photographed (0 h). Cells were incubated with or without compound k (2 μM), senexin A (5 μM), or pirfenidone (1 mM) for 1 h, then treated with TGF-β1 (10 ng/mL) and allowed to migrate into the wound area for 24 or 48 h, and photographed. Cell migration into the wound was quantified using ImageJ software; the solid line indicates time zero. Quantitative assessment of the mean number of cells in the denuded zone is expressed as the mean±SEM from three independent experiments. **p<0.01 compared to the control group; ##p<0.01 and ###p<0.001 compared to TGF-β1-treated group.\nCells were seeded in six-well plates and cultured to 90% confluency, at which time the cellular monolayer was wounded with a sterile 10-μL pipette tip and washed with culture medium to remove detached cells. Cells were incubated in the presence or absence of test compounds for 24 h and photographed. The wound closure percentages were subsequently determined using ImageJ software (National Institutes of Health, USA)."}, "prostate cancer cells [1]": {"tested_on": "prostate cancer cells", "experiment": "Transwell migration assay", "format": "cell-based, human", "details": "both prostate cancer cells"}, "prostate cancer cells [2]": {"tested_on": "prostate cancer cells", "experiment": "TGF-β1-induced EMT proteins and gene expression, western blot and real-time PCR", "format": "cell-based, human", "protocol": "Cells were exposed to compound k as indicated concentrations or senexin A (10 μM) in the presence or absence of TGF-β1 (10 ng/mL) for 24 h, the proteins and mRNA levels of E-cadherin, N-cadherin, Snail, vimentin, α-SMA were determined by western blot (A) or real-time PCR (B). Results are shown as the mean±SEM from at least three independent experiments (**p<0.01, ***p<0.001 vs. control group; #p<0.05, ##p<0.01, and ###p<0.001 vs. TGF-β1 treatment group).\nTotal RNA was isolated from cells using TRIzol reagent (Invitrogen). […] Quantitative PCR was performed using TaqMan One Step RT-PCR mastermix (ABI) in a total reaction volume of 20 μL per reaction, consisting of 10 μL of SYBR green PCR master mix (Applied Biosystems), 5 pmol of each forward/reverse primer, and 2 μL of cDNA. […] The threshold cycle (Ct) in the exponential phase of amplification was detected, the relative mRNA expression level was determined by calculating the ΔΔCt values, and the fold change was expressed as 2^−ΔΔCt. […]\nThe cells were incubated in lysis buffer for 10 min at 4° C., scraped off, incubated on ice for an additional 10 min and then centrifuged at 17,000 g for 30 min at 4° C. […] Bound antibodies will be measured using an ECL reagent and exposed to a photographic film. […]"}, "[3]": {"tested_on": "CDH1 reporter in DU145 cells", "experiment": "7TFP CDH1 reporter luciferase assay", "format": "cell-based, human", "details": "TGF-β1 10 ng/mL, 24 h"}, "DU145 cells": {"tested_on": "DU145 cells", "experiment": "LiCl-induced β-catenin signaling, western blot", "format": "cell-based, human", "details": "LiCl 20 mM; senexin A 10 μM", "protocol": "Inhibitory phosphorylation of GSK3β was evaluated through western blotting. […] Whole-cell lysates were subjected to western blotting with the indicated antibodies. FIGS. 11J-11K show the comparison of basal activities of the Akt/GSK3β axis between PC-3 and DU145 cells. […] The results are shown as the mean±SEM from at least three independent experiments (*p<0.05, **p<0.01, ***p<0.001 vs. control group; #p<0.05, ##p<0.01, and ###p<0.001 vs. relevant control).\nThe cells were incubated in lysis buffer for 10 min at 4° C., scraped off, incubated on ice for an additional 10 min and then centrifuged at 17,000 g for 30 min at 4° C. Protein samples were electrophoresed on SDS-PAGE gels, transferred to PVDF membranes and blocked with 5% fat-free milk in PBS for 30 min at room temperature. Immunoblotting was performed overnight with primary antibodies in PBS at 4° C., followed by incubation with HRP-conjugated secondary antibodies for 1 h at room temperature. Bound antibodies will be measured using an ECL reagent and exposed to a photographic film. In the immunoprecipitation assay, cell lysates were immunoprecipitated with 1 μg of antibody and A/G agarose beads overnight at 4° C. After washing the precipitated beads three times with 1 mL ice-cold cell lysis buffer, bound immune complexes were separated by 10% SDS-PAGE and analyzed with immunoblotting."}}}
{"compound": "CNC(=O)c1cc(Oc2ccc(NS(=O)(=O)c3ccc4c(c3)C(=C(C)C)C(=O)N4)c(F)c2)ccn1", "note": "[Compound k, 4-(3-Fluoro-4-((2-oxo-3-(propan-2-ylidene)indoline)-5-sulfonamido)phenoxy)-N-methylpicolinamide]", "values": [{"measurement": "CDK19 inhibition percentage", "setting": "CDK19", "result": 40, "unit": "%"}, {"measurement": "effect on other CDKs and kinases", "setting": "other CDKs and kinases", "result": "no significant effect"}, {"measurement": "inhibition of cell migration", "setting": "A549 cells", "result": "potent inhibition"}, {"measurement": "TGF-β1-triggered cell migration (transwell)", "setting": "prostate cancer cells [1]", "result": "significantly inhibited"}, {"measurement": "TGF-β1 effects on E-cadherin, N-cadherin, Snail, vimentin", "setting": "prostate cancer cells [2]; TGF-β1 10 ng/mL, 24 h", "result": "attenuated the effects of TGF-β1"}, {"measurement": "EMT protein inhibitory effects compared with senexin A", "setting": "prostate cancer cells [2]; senexin A 10 μM", "result": "more potent"}, {"measurement": "CDH1-driven luciferase expression reduced by TGF-β1", "setting": "[3]", "result": "reversed this effect to the control level"}, {"measurement": "levels of active form of β-catenin and Snail", "setting": "DU145 cells", "result": "reduced the levels"}]}
